The test system of assay [1] is MCF7. Kind of assay: Inhibition of MCF-7 cell proliferation at 1000 nM. It counts as functional, Homo sapiens.
Assay [2] concerns MCF7. Description: Inhibition of MCF-7 cell proliferation at 10000 nM. It counts as functional, Homo sapiens.
In assay [3] the target is T1, Estrogen receptor (Homo sapiens, UniProt P03372).
T1 sequence (P03372 whole entry): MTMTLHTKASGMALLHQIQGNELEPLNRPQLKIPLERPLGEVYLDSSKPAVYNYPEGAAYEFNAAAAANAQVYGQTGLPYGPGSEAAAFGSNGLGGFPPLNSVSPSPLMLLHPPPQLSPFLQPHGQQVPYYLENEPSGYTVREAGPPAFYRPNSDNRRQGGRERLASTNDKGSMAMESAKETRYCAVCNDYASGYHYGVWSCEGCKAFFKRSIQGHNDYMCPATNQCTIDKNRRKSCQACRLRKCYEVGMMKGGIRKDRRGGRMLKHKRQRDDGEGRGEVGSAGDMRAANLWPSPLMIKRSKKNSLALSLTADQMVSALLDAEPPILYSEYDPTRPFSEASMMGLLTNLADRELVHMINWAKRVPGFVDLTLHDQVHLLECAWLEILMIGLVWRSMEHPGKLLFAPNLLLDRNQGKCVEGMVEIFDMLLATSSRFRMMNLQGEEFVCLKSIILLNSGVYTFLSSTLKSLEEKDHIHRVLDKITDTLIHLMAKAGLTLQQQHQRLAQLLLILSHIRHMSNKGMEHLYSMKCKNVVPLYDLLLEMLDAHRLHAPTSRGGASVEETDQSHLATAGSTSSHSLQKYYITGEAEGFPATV
Description: Displacement of [3H]17-beta-estradiol from human estrogen receptor alpha

In assay [4] the test system is MCF7. Description: Inhibition of MCF-7 cell proliferation at 100 nM. Type of assay: functional, Homo sapiens.
For assay [5], the system named is MCF7. Description: Inhibition of MCF-7 cell proliferation at 10 nM. It counts as functional, Homo sapiens.
Assay [6] relates to MCF7. Kind of assay: Inhibition of estrogen-induced MCF-7 cell proliferation at 10000 nM. It counts as functional, Homo sapiens.

Usually IC50 stands for the midpoint of a concentration-inhibition curve. Low values mean inhibition by little substance, high ones a need for much substance. In the case of `CC/C(=C(\c1ccc(O)cc1)c1ccc(OCC(=O)O)cc1)c1ccccc1`, the Cell number in assay [1] is recorded as 96%; in assay [2], 102%. In addition, the IC50 in assay [3] was determined as 500 nM.

In the case of `O=C(O)CCCOc1ccc(/C(=C/CCc2ccccc2)c2ccc(O)cc2)cc1`, the Cell number in assay [1] worked out at 20%; in assay [4], 25%; in assay [5] it was 74%; in assay [6] it was 18%. Besides, the IC50 in assay [3] is 235 nM.

As for `CC/C(=C(/c1ccc(OCC(=O)O)cc1)c1cccc(O)c1)c1ccccc1`, the Cell number in assay [4] was determined as 82%; in assay [2] it was 52%; in assay [5] it was 99%; in assay [6], 78%. The same compound came in with an IC50 in assay [3] of 1440 nM.

In assay [2], `CC/C(=C(/c1ccc(O)cc1)c1cccc(OCC(=O)O)c1)c1ccccc1` had a Cell number of 100%. Moreover, in assay [3], the IC50 was greater than 11 nM.

For the compound `CC/C(=C(\c1ccccc1)c1ccc(OCCN(C)C)cc1)c1ccccc1` [TAMOXIFEN], the Cell number in assay [4] came to 72%; in assay [2], 24%; in assay [5], 97%; in assay [6], 31%.

As for `O=C(O)CCCOc1ccc(/C(=C/CCc2ccccc2)c2cccc(O)c2)cc1`, the Cell number in assay [4] is given as 91%; in assay [2], 19%; in assay [5], 89%; in assay [6], 50%. The compound further had an IC50 in assay [3] of 1700 nM.

With `CC[C@](C)(c1ccccc1)[C@@H](c1ccc(O)cc1)c1ccc(OCCCC(=O)O)cc1`, the Cell number in assay [1] is reported as 102%; in assay [4], 99%; in assay [2] it was 68%. The midpoint of inhibition in assay [3], the IC50, lay at 6000 nM.

These data come from ChEMBL document CHEMBL1132343, “Carboxylic acid analogues of tamoxifen: (Z)-2-[p-(1, 2-diphenyl-1-butenyl)phenoxy]-N,N-dimethylethylamine. Estrogen receptor affinity and estrogen antagonist effects in MCF-7 cells” (J Med Chem, 1999).
